Species: Rattus norvegicus
Test: Open TG-GATES - Regimen: Single
Format: toxicity, organism-based, Sprague-Dawley
Set-up: regimen Single, gender Male, age 6 weeks
Details: in vivo, po, route gavage; for APTT / Bas / Eos / Fbg / Hb / Ht / Lym / MCH / MCHC / MCV / Mono / Neu / PT / Plat / RBC / Ret / WBC: tissue Blood; for KIDNEY_L / KIDNEY_R / KIDNEY_TOTAL: tissue Kidney; for LIVER: tissue Liver; for A/G / ALP / ALT / AST / BUN / CRE / Ca / Cl / DBIL / GLC / IP / K / LDH / Na / PL / RALB / TBIL / TC / TG / TP / gamma-GTP: tissue Plasma
[1] = 150 mg/kg, 3 h, dose level Middle
[2] = 150 mg/kg, 6 h, dose level Middle
[3] = 150 mg/kg, 9 h, dose level Middle
[4] = 150 mg/kg, 24 h, dose level Middle
[5] = 300 mg/kg, 3 h, dose level High
[6] = 300 mg/kg, 6 h, dose level High
[7] = 300 mg/kg, 9 h, dose level High
[8] = 300 mg/kg, 24 h, dose level High

CCC1(c2ccccc2)C(=O)NC(=O)NC1=O [PHENOBARBITAL]
TERMINAL_BW [1]: 224.5 g
APTT [1]: 19.1 s
Bas [1]: 0.4%
Eos [1]: 1%
Fbg [1]: 217.2 mg/dL
Hb [1]: 13.8 g/dL
Ht [1]: 38.5%
Lym [1]: 82.4%
MCH [1]: 21.6 pg
MCHC [1]: 35.8%
MCV [1]: 60.4 fL
Mono [1]: 3%
Neu [1]: 12.6%
PT [1]: 12 s
Plat [1]: 129.5 x10_4/uL
RBC [1]: 637.8 x10_4/ul
Ret [1]: 7.8%
WBC [1]: 81.1 x10_2/uL
KIDNEY_L [1]: 1 g
KIDNEY_R [1]: 1 g
KIDNEY_TOTAL [1]: 2 g
LIVER [1]: 10.3 g
A/G [1]: 1.7
ALP [1]: 765.6 IU/L
ALT [1]: 39 IU/L
AST [1]: 66.4 IU/L
BUN [1]: 8.8 mg/dL
CRE [1]: 0.3 mg/dL
Ca [1]: 10.7 mg/dL
Cl [1]: 101.2 meq/L
DBIL [1]: 0.064 mg/dL
GLC [1]: 184.4 mg/dL
IP [1]: 9.8 mg/dL
K [1]: 4.4 meq/L
LDH [1]: 149.4 IU/L
Na [1]: 139.8 meq/L
PL [1]: 145.4 mg/dL
RALB [1]: 3.3 g/dL
TBIL [1]: 0.1 mg/dL
TC [1]: 71.4 mg/dL
TG [1]: 73.2 mg/dL
TP [1]: 5.3 g/dL
gamma-GTP [1]: 1 IU/L
TERMINAL_BW [2]: 221.3 g
APTT [2]: 20.4 s
Bas [2]: 0.2%
Eos [2]: 0.6%
Fbg [2]: 226 mg/dL
Hb [2]: 13.8 g/dL
Ht [2]: 38.1%
Lym [2]: 79%
MCH [2]: 21.5 pg
MCHC [2]: 36.3%
MCV [2]: 59.3 fL
Mono [2]: 3%
Neu [2]: 15.4%
PT [2]: 12 s
Plat [2]: 125.8 x10_4/uL
RBC [2]: 643 x10_4/ul
Ret [2]: 7.6%
WBC [2]: 90 x10_2/uL
KIDNEY_L [2]: 1 g
KIDNEY_R [2]: 1 g
KIDNEY_TOTAL [2]: 2 g
LIVER [2]: 9.3 g
A/G [2]: 1.5
ALP [2]: 756.8 IU/L
ALT [2]: 28.4 IU/L
AST [2]: 60.8 IU/L
BUN [2]: 8.2 mg/dL
CRE [2]: 0.4 mg/dL
Ca [2]: 10.7 mg/dL
Cl [2]: 100.6 meq/L
DBIL [2]: 0.07 mg/dL
GLC [2]: 178.2 mg/dL
IP [2]: 9.7 mg/dL
K [2]: 4.2 meq/L
LDH [2]: 178.4 IU/L
Na [2]: 139.6 meq/L
PL [2]: 137 mg/dL
RALB [2]: 3.2 g/dL
TBIL [2]: 0.1 mg/dL
TC [2]: 69.2 mg/dL
TG [2]: 67.6 mg/dL
TP [2]: 5.3 g/dL
gamma-GTP [2]: 1.2 IU/L
TERMINAL_BW [3]: 219.3 g
APTT [3]: 20.6 s
Bas [3]: 0%
Eos [3]: 0.4%
Fbg [3]: 215 mg/dL
Hb [3]: 14.1 g/dL
Ht [3]: 38.6%
Lym [3]: 76.6%
MCH [3]: 22.1 pg
MCHC [3]: 36.5%
MCV [3]: 60.5 fL
Mono [3]: 3%
Neu [3]: 19%
PT [3]: 12.2 s
Plat [3]: 121.6 x10_4/uL
RBC [3]: 637.8 x10_4/ul
Ret [3]: 7.7%
WBC [3]: 96.4 x10_2/uL
KIDNEY_L [3]: 1 g
KIDNEY_R [3]: 1 g
KIDNEY_TOTAL [3]: 2 g
LIVER [3]: 9.3 g
A/G [3]: 1.7
ALP [3]: 593.2 IU/L
ALT [3]: 26.6 IU/L
AST [3]: 58.6 IU/L
BUN [3]: 6.8 mg/dL
CRE [3]: 0.3 mg/dL
Ca [3]: 10.4 mg/dL
Cl [3]: 100 meq/L
DBIL [3]: 0.066 mg/dL
GLC [3]: 182 mg/dL
IP [3]: 9.5 mg/dL
K [3]: 4.1 meq/L
LDH [3]: 136 IU/L
Na [3]: 139.8 meq/L
PL [3]: 138.8 mg/dL
RALB [3]: 3.3 g/dL
TBIL [3]: 0.1 mg/dL
TC [3]: 70 mg/dL
TG [3]: 39 mg/dL
TP [3]: 5.2 g/dL
gamma-GTP [3]: 1 IU/L
TERMINAL_BW [4]: 234 g
APTT [4]: 19.2 s
Bas [4]: 0.8%
Eos [4]: 1%
Fbg [4]: 214.2 mg/dL
Hb [4]: 13.9 g/dL
Ht [4]: 38.4%
Lym [4]: 79.6%
MCH [4]: 21.8 pg
MCHC [4]: 36.2%
MCV [4]: 60.3 fL
Mono [4]: 2.2%
Neu [4]: 16%
PT [4]: 11.7 s
Plat [4]: 125.7 x10_4/uL
RBC [4]: 637 x10_4/ul
Ret [4]: 6.5%
WBC [4]: 106.3 x10_2/uL
KIDNEY_L [4]: 1.1 g
KIDNEY_R [4]: 1 g
KIDNEY_TOTAL [4]: 2.1 g
LIVER [4]: 11.5 g
A/G [4]: 1.6
ALP [4]: 882.2 IU/L
ALT [4]: 33.8 IU/L
AST [4]: 75.6 IU/L
BUN [4]: 16 mg/dL
CRE [4]: 0.4 mg/dL
Ca [4]: 10.8 mg/dL
Cl [4]: 102 meq/L
DBIL [4]: 0.058 mg/dL
GLC [4]: 180.6 mg/dL
IP [4]: 7.6 mg/dL
K [4]: 4.2 meq/L
LDH [4]: 264.4 IU/L
Na [4]: 142.4 meq/L
PL [4]: 142.2 mg/dL
RALB [4]: 3.5 g/dL
TBIL [4]: 0.1 mg/dL
TC [4]: 72 mg/dL
TG [4]: 113.2 mg/dL
TP [4]: 5.7 g/dL
gamma-GTP [4]: 1.2 IU/L
TERMINAL_BW [5]: 225.3 g
APTT [5]: 22 s
Bas [5]: 0.2%
Eos [5]: 1%
Fbg [5]: 202.2 mg/dL
Hb [5]: 13.6 g/dL
Ht [5]: 37.8%
Lym [5]: 78.6%
MCH [5]: 21.9 pg
MCHC [5]: 36%
MCV [5]: 61.1 fL
Mono [5]: 2.8%
Neu [5]: 16.6%
PT [5]: 12.3 s
Plat [5]: 122.8 x10_4/uL
RBC [5]: 619.4 x10_4/ul
Ret [5]: 7.8%
WBC [5]: 75.1 x10_2/uL
KIDNEY_L [5]: 1 g
KIDNEY_R [5]: 1 g
KIDNEY_TOTAL [5]: 2.1 g
LIVER [5]: 10 g
A/G [5]: 1.6
ALP [5]: 833 IU/L
ALT [5]: 40.2 IU/L
AST [5]: 73 IU/L
BUN [5]: 8 mg/dL
CRE [5]: 0.3 mg/dL
Ca [5]: 10.5 mg/dL
Cl [5]: 100.6 meq/L
DBIL [5]: 0.064 mg/dL
GLC [5]: 183.2 mg/dL
IP [5]: 10.3 mg/dL
K [5]: 4.1 meq/L
LDH [5]: 142 IU/L
Na [5]: 140.6 meq/L
PL [5]: 152 mg/dL
RALB [5]: 3.2 g/dL
TBIL [5]: 0.1 mg/dL
TC [5]: 77 mg/dL
TG [5]: 57.2 mg/dL
TP [5]: 5.1 g/dL
gamma-GTP [5]: 0.8 IU/L
TERMINAL_BW [6]: 221.9 g
APTT [6]: 20.5 s
Bas [6]: 0%
Eos [6]: 1%
Fbg [6]: 219 mg/dL
Hb [6]: 14.2 g/dL
Ht [6]: 39.1%
Lym [6]: 76.8%
MCH [6]: 21.8 pg
MCHC [6]: 36.3%
MCV [6]: 60.2 fL
Mono [6]: 3.4%
Neu [6]: 17.6%
PT [6]: 12 s
Plat [6]: 120.7 x10_4/uL
RBC [6]: 649.4 x10_4/ul
Ret [6]: 7.7%
WBC [6]: 62.8 x10_2/uL
KIDNEY_L [6]: 1 g
KIDNEY_R [6]: 1 g
KIDNEY_TOTAL [6]: 2 g
LIVER [6]: 9.4 g
A/G [6]: 1.6
ALP [6]: 672.6 IU/L
ALT [6]: 29.2 IU/L
AST [6]: 58.4 IU/L
BUN [6]: 8.6 mg/dL
CRE [6]: 0.3 mg/dL
Ca [6]: 10.5 mg/dL
Cl [6]: 100.4 meq/L
DBIL [6]: 0.07 mg/dL
GLC [6]: 176 mg/dL
IP [6]: 9.5 mg/dL
K [6]: 4.2 meq/L
LDH [6]: 162.2 IU/L
Na [6]: 139.2 meq/L
PL [6]: 142.4 mg/dL
RALB [6]: 3.2 g/dL
TBIL [6]: 0.1 mg/dL
TC [6]: 74.4 mg/dL
TG [6]: 44.2 mg/dL
TP [6]: 5.2 g/dL
gamma-GTP [6]: 1.2 IU/L
TERMINAL_BW [7]: 219.7 g
APTT [7]: 19.3 s
Bas [7]: 0%
Eos [7]: 0.8%
Fbg [7]: 219.4 mg/dL
Hb [7]: 13.8 g/dL
Ht [7]: 38.3%
Lym [7]: 71.8%
MCH [7]: 22 pg
MCHC [7]: 36%
MCV [7]: 60.9 fL
Mono [7]: 3.6%
Neu [7]: 22%
PT [7]: 12.4 s
Plat [7]: 125.2 x10_4/uL
RBC [7]: 630.2 x10_4/ul
Ret [7]: 7.7%
WBC [7]: 73.7 x10_2/uL
KIDNEY_L [7]: 1 g
KIDNEY_R [7]: 1 g
KIDNEY_TOTAL [7]: 1.9 g
LIVER [7]: 8.6 g
A/G [7]: 1.5
ALP [7]: 558.2 IU/L
ALT [7]: 35.8 IU/L
AST [7]: 78 IU/L
BUN [7]: 9 mg/dL
CRE [7]: 0.3 mg/dL
Ca [7]: 10.3 mg/dL
Cl [7]: 99.6 meq/L
DBIL [7]: 0.064 mg/dL
GLC [7]: 186.2 mg/dL
IP [7]: 9.7 mg/dL
K [7]: 4.2 meq/L
LDH [7]: 170.4 IU/L
Na [7]: 139.4 meq/L
PL [7]: 137.8 mg/dL
RALB [7]: 3 g/dL
TBIL [7]: 0.1 mg/dL
TC [7]: 74.8 mg/dL
TG [7]: 29.8 mg/dL
TP [7]: 5 g/dL
gamma-GTP [7]: 1 IU/L
TERMINAL_BW [8]: 201.5 g
APTT [8]: 24.3 s
Bas [8]: 1%
Eos [8]: 1%
Fbg [8]: 207 mg/dL
Hb [8]: 16.1 g/dL
Ht [8]: 44.2%
Lym [8]: 82.3%
MCH [8]: 22 pg
MCHC [8]: 36.6%
MCV [8]: 60.1 fL
Mono [8]: 2.3%
Neu [8]: 13%
PT [8]: 12.3 s
Plat [8]: 145.9 x10_4/uL
RBC [8]: 735.3 x10_4/ul
Ret [8]: 6.5%
WBC [8]: 84.5 x10_2/uL
KIDNEY_L [8]: 1 g
KIDNEY_R [8]: 1 g
KIDNEY_TOTAL [8]: 2 g
LIVER [8]: 7.7 g
A/G [8]: 1.6
ALP [8]: 449.7 IU/L
ALT [8]: 21 IU/L
AST [8]: 53 IU/L
BUN [8]: 9 mg/dL
CRE [8]: 0.3 mg/dL
Ca [8]: 10.5 mg/dL
Cl [8]: 100 meq/L
DBIL [8]: 0.06 mg/dL
GLC [8]: 141 mg/dL
IP [8]: 9 mg/dL
K [8]: 4.6 meq/L
LDH [8]: 113.3 IU/L
Na [8]: 139.3 meq/L
PL [8]: 100 mg/dL
RALB [8]: 3.2 g/dL
TBIL [8]: 0.1 mg/dL
TC [8]: 58.7 mg/dL
TG [8]: 13.3 mg/dL
TP [8]: 5.2 g/dL
gamma-GTP [8]: 1 IU/L

Reference: ChEMBL document CHEMBL3885861, “Open TG-GATES”
